This passage reports Activity and hemolysis results from ChEMBL document CHEMBL4819037, “Phytochemical Profiling and Biological Activity of the Australian Carnivorous Plant, Drosera magna” (J Nat Prod, 2021).

Series [1] relates to Haemonchus contortus. Description: Anti-helmintic activity against third-stage xL3 Haemonchus contortus larvae assessed as inhibition of larvae motility at 100 uM measured after 72 hrs. Type of series: functional, organism-based.
A further series deals with Acinetobacter baumannii. Description: Antimicrobial activity against Acinetobacter baumannii ATCC 19606 assessed as inhibition of bacterial growth at 32 ug/ml incubated for 18 hrs by resazurin dye based assay. Type of series: functional, organism-based. Conditions: ATCC 19606 = CIP 70.34 = JCM 6841, dose 32.0 µg/ml.
The test system of series [2] is Staphylococcus aureus. As to the kind of experiment: Antimicrobial activity against methicillin-resistant Staphylococcus aureus ATCC 43300 assessed as inhibition of bacterial growth at 32 ug/ml incubated for 18 hrs by resazurin dye based assay. The class given is functional, organism-based. Conditions: dose 32.0 µg/ml. On the technique in general: Resazurin is reduced to fluorescent resorufin, in cell work by metabolically active cells.

In series [3] the test system is Candida albicans. As to the kind of experiment: Antimicrobial activity against Candida albicans ATCC 90028 assessed as inhibition of fungal growth at 32 ug/ml incubated for 24 hrs by resazurin dye based assay. Type of series: functional, organism-based. As to conditions: dose 32.0 µg/ml.
The subject of the next series is Escherichia coli. Description: Antimicrobial activity against Escherichia coli ATCC 25922 assessed as inhibition of bacterial growth at 32 ug/ml incubated for 18 hrs by resazurin dye based assay. The class given is functional, organism-based. Conditions: dose 32.0 µg/ml.
Series [4] is described as follows: Hemolytic activity against RBC (unknown origin) at 32 ug/ml. The class given is ADME, cell-based, Erythrocyte. As to conditions: red blood cells (erythrocytes), at 32 µg/mL, read-out: Activity.
The subject of a further series is Pseudomonas aeruginosa. As to the kind of experiment: Antimicrobial activity against Pseudomonas aeruginosa ATCC 27853 assessed as inhibition of bacterial growth at 32 ug/ml incubated for 18 hrs by resazurin dye based assay. The class given is functional, organism-based. Conditions: dose 32.0 µg/ml.
In series [5] the test system is Cryptococcus neoformans. Description: Antimicrobial activity against Cryptococcus neoformans var. grubii ATCC 208821 assessed as inhibition of fungal growth at 32 ug/ml incubated for 24 hrs by resazurin dye based assay. The class given is functional. As to conditions: dose 32.0 µg/ml.
The test system of another series is Klebsiella pneumoniae. Description: Antimicrobial activity against Klebsiella pneumoniae ATCC 700603 assessed as inhibition of bacterial growth at 32 ug/ml incubated for 18 hrs by resazurin dye based assay. As to conditions: dose 32.0 µg/ml. The class given is functional, organism-based.
For series [6], the system named is Cryptococcus neoformans. Description: Antimicrobial activity against Cryptococcus neoformans var. grubii ATCC 208821 assessed as inhibition of fungal growth at 8 ug/ml incubated for 24 hrs by resazurin dye based assay. More on the design: scale not given: the % may be the effect or the level left. As to conditions: dose 8 µg/ml. The class given is functional.
The subject of series [7] is Staphylococcus aureus. As to the kind of experiment: Antimicrobial activity against methicillin-resistant Staphylococcus aureus ATCC 43300 assessed as inhibition of bacterial growth at < 0.2 ug/ml incubated for 18 hrs by resazurin dye based assay. The class given is functional. More on the design: scale not given: the % may be the effect or the level left. Conditions: dose microg/ml <0.2.

The next series deals with HEK293. Description: Cytotoxicity against human HEK293 cells at 32 ug/ml. The class given is cell-based.
In series [8] the test system is Candida albicans. As to the kind of experiment: Antimicrobial activity against Candida albicans ATCC 90028 assessed as inhibition of fungal growth at 8 ug/ml incubated for 24 hrs by resazurin dye based assay. Type of series: functional. More on the design: scale not given: the % may be the effect or the level left. Conditions: dose 8 µg/ml.
Series [9] has as its system Haemonchus contortus. Description: Anti-helmintic activity against fourth stage L4 Haemonchus contortus larvae assessed as induction of abnormal morphological phenotype at >= 50 uM after 7 days. The class given is functional, organism-based. As to conditions: dose microM >=50, time 7.0 day.
Series [10] has as its system Cryptococcus neoformans. As to the kind of experiment: Antimicrobial activity against Cryptococcus neoformans var. grubii ATCC 208821 assessed as inhibition of fungal growth at 4 ug/ml incubated for 24 hrs by resazurin dye based assay. The class given is functional. More on the design: scale not given: the % may be the effect or the level left. As to conditions: dose 4 µg/ml.

For series [11], the system named is Haemonchus contortus. As to the kind of experiment: Anti-helmintic activity against fourth stage L4 Haemonchus contortus larvae assessed as inhibition of larvae motility at 100 uM after 72 hrs. Type of series: functional. Also noted: scale not given: the % may be the effect or the level left.

Molecules are shown by their SMILES. Calls of active or inactive are those of the source. No cut-off for these calls is given here.

With `COc1ccc(-c2oc3cc(OC4OC(C)C(O)C(OC(C)=O)C4O)cc(O)c3c(=O)c2OC2OC(C)C(O)C(O)C2O)cc1O` (configuration not stated), the outcome in the series with Haemonchus contortus [1] was inactive.
`O=c1c(O[C@@H]2O[C@H](CO)[C@@H](O)[C@H](O)[C@H]2O)c(-c2ccc(O)c(O)c2)oc2cc(O)cc(O)c12` [ISOQUERCETIN]: the result in the series on Acinetobacter baumannii, in the series with Staphylococcus aureus [2], with Escherichia coli, in the series on Pseudomonas aeruginosa, in the series on Cryptococcus neoformans [5] and in the series with Klebsiella pneumoniae was Active. Further, the outcome with Candida albicans [3] was inactive. Besides, the hemolysis at 32 ug/ml in series [4] is above 10%.
Consider `O=C1CC(c2ccc(O)cc2)Oc2cc(O)c([C@@H]3O[C@H](CO)[C@@H](O)[C@H](O)[C@H]3O)c(O)c21` (some centres not stated), for which the outcome in the series with Acinetobacter baumannii, in the series on Staphylococcus aureus [2], in the series on Candida albicans [3], with Escherichia coli, in the series on Pseudomonas aeruginosa and with Cryptococcus neoformans [5] was Active. For the same compound, the result in the series with Klebsiella pneumoniae was Active.
In the case of `CC1=C(O)C(=O)c2c(OC3OC(CO)C(O)C(O)C3O)ccc(O)c2C1=O` (configuration not stated), the outcome with Candida albicans [3] was Active.
Turning to `CC1=CC(=O)c2c(O)cccc2C1=O` [PLUMBAGIN], the Activity in the series on Cryptococcus neoformans [6] is 100%; with Staphylococcus aureus [7] it was 96%; with HEK293 (at 32 µg/mL), 92%.
For the compound `CC1=C(O)C(=O)c2c(O)ccc(O)c2C1=O`, the outcome in the series with Haemonchus contortus [1] was inactive. In addition, the Activity with Candida albicans [8] was 98%; in the series with HEK293 (dose 32 µg/ml), “Non-Toxic”; in the series with Cryptococcus neoformans [10], 100%; in the series with Haemonchus contortus [11], 27%. Also, the outcome in the series with Haemonchus contortus [9] was Active.
For `COc1ccc(-c2oc3cc(OC4OC(C)C(O)C(O)C4O)cc(O)c3c(=O)c2OC2OC(C)C(O)C(O)C2O)cc1O` (configuration not stated), the outcome in the series on Haemonchus contortus [1] was inactive.
